Assay results as given in paper PMC11714206, “Massively Parallel Screening of Toll/Interleukin‐1 Receptor (TIR)‐Derived Peptides Reveals Multiple Toll‐Like Receptors (TLRs)‐Targeting Immunomodulatory Peptides” (Advanced Science, 2024).
Each block holds one sequence with its values, some of them ahead of it.

Biological target: T1, MAL^TIR (Homo sapiens, UniProt P58753)
T1 construct: MAL (residues 79–221); 6xHis; made in house; host or cells: E. coli BL21 (DE3)
Assay: T‐Surf phage library (P8 and P3) selection against MAL^TIR, four rounds, NGS read counts
Type: binding
Conditions: for P8_MAL Rank (after) / P8_MAL Rank (before): P8 library; for P3_MAL Rank (after) / P3_MAL Rank (before): P3 library; for Population: 4th round of selection against MAL TIR, share of NGS reads
In short: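 P8 and P3 T‐Surf libraries panned against plate-coated TIR domains (5 µg mL^−1), 1 h binding at RT, acid elution and TG1/helper-phage amplification per round. After four rounds, pools were PCR-barcoded and sequenced (NovaSeq, 100 bp paired-end, Phred ≥30); peptides ranked by read counts.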

[1] = selection against MAL, rank after grouping
[2] = selection against MAL, rank before grouping
[3] = P8_MAL: rank by count after grouping
[4] = P8_MAL: rank by count before grouping
[5] = 4R selection against MAL, rank after grouping
[6] = 4R selection against MAL, rank before grouping
[7] = P8_MAL pool: P8 T-Surf phage library
[8] = P3_MAL: rank by count after grouping
[9] = P3_MAL: rank by count before grouping
[10] = selection against MAL, rank by count after grouping
[11] = selection against MAL, rank by count before grouping
[12] = selection against MAL TIR, rank by count after grouping
[13] = selection against MAL TIR, rank by count before grouping
[14] = P3_MAL pool: P3 T-Surf phage library

T1 sequence (P58753 79-221): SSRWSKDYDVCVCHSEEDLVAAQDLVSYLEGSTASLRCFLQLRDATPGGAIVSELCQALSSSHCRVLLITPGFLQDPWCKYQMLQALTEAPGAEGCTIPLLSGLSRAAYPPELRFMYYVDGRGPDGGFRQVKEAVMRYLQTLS

- P8_MAL Rank (after) [1]: 577
- P8_MAL Rank (before) [2]: 2043
Sequence: ELLLSVFMTLSAPRTV

- Rank (after) [3]: 160
- Rank (before) [4]: 2225
Sequence: RNFVAYLVQALAKKGI

- P8_MAL Rank (after) [5]: 603
- P8_MAL Rank (before) [6]: 2242
Sequence: RNLVAYLLQPRANKCI

- P3_MAL Rank (after) [1]: 525
- P3_MAL Rank (before) [2]: 3171
Sequence: SSFREGLWHLLELTKT

- Population [7]: 0.0034%
Sequence: AFFGAQLKSVLGNPTM

- P8_MAL Rank (after) [1]: 558
- P8_MAL Rank (before) [2]: 2443
Sequence: SDFIQLINLLVKPKII

- Rank (after) [8]: 428
- Rank (before) [9]: 3626
Sequence: KLRAWRDALRNIANIF

- P3_MAL Rank (after) [5]: 668
- P3_MAL Rank (before) [6]: 2560
Sequence: RRLKWKEALHQLYSWV

- Rank (after) [3]: 455
- Rank (before) [4]: 2301
Sequence: RFFLESLKQLLRSDGR

- Rank (after) [8]: 153
- Rank (before) [9]: 1027
Sequence: SSFREGLWRLLELSNE

- Rank (after) [8]: 454
- Rank (before) [9]: 2967
Sequence: MSMRPGDRLQRSGI

- P3_MAL Rank (after) [10]: 678
- P3_MAL Rank (before) [11]: 2463
Sequence: RAFSSHLRHHLLAKDQ

- P8_MAL Rank (after) [10]: 679
- P8_MAL Rank (before) [11]: 1635
Sequence: AFFWAQLKSVLQSDD

- P8_MAL Rank (after) [12]: 243
- P8_MAL Rank (before) [13]: 1654
Sequence: AFFWARLQSVLGNPTM

- P8_MAL Rank (after) [5]: 668
- P8_MAL Rank (before) [6]: 1241
Sequence: WFYERLVNLILRDTIV

- Rank (after) [8]: 119
- Rank (before) [9]: 3403
Sequence: NQWRNALTAATNLSGG

- P3_MAL Rank (after) [10]: 771
- P3_MAL Rank (before) [11]: 2208
Sequence: LKWGDPYFLEQTALCD

- Rank (after) [3]: 427
- Rank (before) [4]: 2195
Sequence: RNFVAYLFQGLANKVI

- P3_MAL Rank (after) [1]: 524
- P3_MAL Rank (before) [2]: 2686
Sequence: PNLRTQVQNYLLPNKT

- Population [7]: 0.0034%
Sequence: WFYERLASLILRDTKV

- P3_MAL Rank (after) [5]: 584
- P3_MAL Rank (before) [6]: 2814
Sequence: HHTGSYGQALAEHEKR

- Rank (after) [3]: 441
- Rank (before) [4]: 2482
Sequence: SEFIQKIILWMNQQIV

- Population [14]: 0.00338%
Sequence: YAFTGHLHRYLVRRGV

- Rank (after) [8]: 176
- Rank (before) [9]: 3342
Sequence: NQWRNSLTAAANLSGR

- P8_MAL Rank (after) [10]: 723
- P8_MAL Rank (before) [11]: 2174
Sequence: RHNFIGYLYQALYRIG

- Population [7]: 0.0034%
Sequence: AFLYTFLINLTHPTTF

- Rank (after) [8]: 121
- Rank (before) [9]: 408
Sequence: AFTGHLHRYLVQRGV

- P8_MAL Rank (after) [1]: 548
- P8_MAL Rank (before) [2]: 2000
Sequence: DTILKKGESIAPELLG

- P8_MAL Rank (after) [1]: 550
- P8_MAL Rank (before) [2]: 1151
Sequence: WFYERFVSQIPRDTNL

- P3_MAL Rank (after) [1]: 562
- P3_MAL Rank (before) [2]: 1581
Sequence: YNFISHLHRYLVQRGV

- Rank (after) [3]: 469
- Rank (before) [4]: 1562
Sequence: VTKLKKGKSIAPKLLR

- Rank (after) [3]: 182
- Rank (before) [4]: 923
Sequence: LVAHEISKKMKIFATI

- P8_MAL Rank (after) [10]: 715
- P8_MAL Rank (before) [11]: 1353
Sequence: WFLEQLEKILEAHGTT

- Population [7]: 0.00309%
Sequence: AFLYTFLNNLTHPTNF

- P3_MAL Rank (after) [1]: 575
- P3_MAL Rank (before) [2]: 3420
Sequence: NQWSNELTAAANLRGW

- Rank (after) [8]: 419
- Rank (before) [9]: 3195
Sequence: SSFRNDLWRLLELSKK

- P3_MAL Rank (after) [1]: 536
- P3_MAL Rank (before) [2]: 1341
Sequence: YVFTGNLHRYLMQLGV

- P8_MAL Rank (after) [12]: 286
- P8_MAL Rank (before) [13]: 2678
Sequence: NLIQGWLLYRLLKIEK

- Population [14]: 0.00338%
- Rank (after) [8]: 114
- Rank (before) [9]: 186
Sequence: YAFTGHLHRYLMRTKT

- P8_MAL Rank (after) [5]: 580
- P8_MAL Rank (before) [6]: 2134
Sequence: LFFGASLKQLLRSDGR

- P8_MAL Rank (after) [12]: 196
- P8_MAL Rank (before) [13]: 791
Sequence: YFLHFLLLAVRKPSI

- Population [14]: 0.0233%
- Rank (after) [8]: 101
- Rank (before) [9]: 102
Sequence: KTLAGLLYDHLFRLRL

- Rank (after) [3]: 454
- Rank (before) [4]: 2074
Sequence: LFFWEILKQLLRSAGR

- P3_MAL Rank (after) [12]: 196
- P3_MAL Rank (before) [13]: 3547
Sequence: KEVDGWRDALTQVASL

- Rank (after) [3]: 159
- Rank (before) [4]: 1814
Sequence: AFLYDFLINLTHQTNF

- P3_MAL Rank (after) [10]: 729
- P3_MAL Rank (before) [11]: 1862
Sequence: DWFVSKLSQQILQREK

- P3_MAL Rank (after) [5]: 616
- P3_MAL Rank (before) [6]: 2412
Sequence: RGFMSHLRHPLQAKDH

- P3_MAL Rank (after) [10]: 709
- P3_MAL Rank (before) [11]: 1219
Sequence: WFFPETGKIFEARKTI

- P3_MAL Rank (after) [12]: 244
- P3_MAL Rank (before) [13]: 1663
Sequence: VEPTQVRKQSGSVKNA

- P3_MAL Rank (after) [1]: 527
- P3_MAL Rank (before) [2]: 2944
Sequence: MSHLYQGLNNRGIFIF

- Rank (after) [3]: 422
- Rank (before) [4]: 1874
Sequence: AFLYTFLKNLMRKPTF

- P8_MAL Rank (after) [5]: 619
- P8_MAL Rank (before) [6]: 1307
Sequence: WFYKPLVSLILRDTKA
